Assay results published in paper PMC6905112, “CtcS, a MarR family regulator, regulates chlortetracycline biosynthesis” (BMC Microbiology, 2019).

Columns and labels:
CtcS = biological target: T1, CtcS (Kitasatospora aureofaciens, UniProt S4S3A4); test: competitive EMSA, release of FAM-labelled ctcS-ctcR intergenic DNA probe; format: binding; conditions: His6-CtcS 40 ng, probe 40 ng, 20 uL, pH 8.0, 0.0015-5 mM compound
T1 sequence (S4S3A4 1-165): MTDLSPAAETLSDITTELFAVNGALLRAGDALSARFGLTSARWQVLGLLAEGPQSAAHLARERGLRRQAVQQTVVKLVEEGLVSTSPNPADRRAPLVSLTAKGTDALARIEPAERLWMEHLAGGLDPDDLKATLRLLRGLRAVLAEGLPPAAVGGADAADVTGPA

[1] = biological target: His6-tagged recombinant CtcS (Streptomyces aureofaciens F3); test: SEC; Superdex 200 10/300 column, AKTA FPLC P-920; ovalbumin (44 kD) and lysozyme (14 kD) as standards; purified His6-tagged CtcS

| Compound | competitive EMSA, release of FAM-labelled ctcS-ctcR intergenic DNA probe (CtcS) | stoichiometry N [1] |
| --- | --- | --- |
| CN(C)[C@@H]1C(=O)C(C(N)=O)=C(O)[C@@]2(O)C(=O)C3=C(O)c4c(O)cccc4[C@@](C)(O)[C@H]3C[C@@H]12 [tetracycline] | the DNA-binding affinity of CtcS would be decreased by the presence of TC and CTC |  |
| CN(C)[C@@H]1C(=O)C(C(N)=O)=C(O)[C@@]2(O)C(=O)C3=C(O)c4c(O)ccc(Cl)c4[C@@](C)(O)[C@H]3C[C@@H]12 [chlortetracycline] | the DNA-binding affinity of CtcS would be decreased by the presence of TC and CTC |  |
| His6-tagged recombinant CtcS (natural protein) |  | 2 |
